Laboratory results taken from article PMC5216352, “Disulfide isomerase-like protein AtPDIL1–2 is a good candidate for trichlorophenol phytodetoxification” (Scientific Reports, 2017).

Biological target: T1, AtPDIL1-2 (Arabidopsis thaliana, UniProt Q9SRG3)
T1 construct: gene PDIL1-2; full-length cDNA (1527 bp ORF, start codon to C-terminal KDEL) in pET-32a, His-tagged fusion about 72 kDa, E. coli, Ni-NTA purified
T1 sequence (Q9SRG3 1-508): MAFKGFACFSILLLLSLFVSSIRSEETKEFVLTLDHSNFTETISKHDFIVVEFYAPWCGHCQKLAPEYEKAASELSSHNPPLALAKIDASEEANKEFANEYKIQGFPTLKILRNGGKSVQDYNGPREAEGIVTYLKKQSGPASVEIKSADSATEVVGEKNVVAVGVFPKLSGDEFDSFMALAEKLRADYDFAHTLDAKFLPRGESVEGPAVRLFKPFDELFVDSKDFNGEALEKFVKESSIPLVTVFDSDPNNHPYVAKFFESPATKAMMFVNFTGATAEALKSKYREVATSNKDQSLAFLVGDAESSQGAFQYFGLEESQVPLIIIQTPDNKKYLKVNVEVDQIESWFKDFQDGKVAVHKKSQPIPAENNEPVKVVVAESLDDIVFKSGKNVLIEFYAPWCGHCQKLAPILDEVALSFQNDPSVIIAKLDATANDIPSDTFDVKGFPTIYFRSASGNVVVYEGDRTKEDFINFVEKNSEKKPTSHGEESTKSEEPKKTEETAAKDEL
Experiment: RNase A oxidative refolding assay, cCMP hydrolysis at […] nm
Format: biochemical
Conditions: 3.5 uM protein, 10 uM reduced denatured RNase, 4.5 mM cCMP, 1 mM GSH, 0.2 mM GSSG, pH 8; TCP concentration not given

Oc1c(Cl)cc(Cl)cc1Cl [2,4,6-TCP]
maximum inhibition: 16%
